The target of this assay is T1, MAGL protein (Homo sapiens, UniProt Q99685).
T1 sequence (Q99685 1-303): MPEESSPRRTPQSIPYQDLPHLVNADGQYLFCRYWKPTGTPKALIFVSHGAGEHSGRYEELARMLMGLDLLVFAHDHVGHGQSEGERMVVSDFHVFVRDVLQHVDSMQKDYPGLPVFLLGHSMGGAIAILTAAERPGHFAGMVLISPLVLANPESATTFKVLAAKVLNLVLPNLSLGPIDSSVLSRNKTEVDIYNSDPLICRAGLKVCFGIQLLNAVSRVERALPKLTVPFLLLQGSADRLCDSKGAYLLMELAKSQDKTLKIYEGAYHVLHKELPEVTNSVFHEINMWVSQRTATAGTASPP
Kind of assay: 2-AG assay: MAGL inhibitory activity by hydrolysis of 2-arachidonoylglycerol to arachidonic acid, followed by mass spectrometry. Format: biochemical. To be noted: 8 μM 2-arachidonoylglycerol, 15 min preincubation, 30 min reaction at RT, RapidFire MS readout. The gist of the method: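 MAGL was preincubated 15 min at RT with compound (12.5 to […], 3-fold steps) in 50 mM TRIS, 1 mM EDTA, 0.01% Tween-20, 2.5% DMSO. The reaction ran 30 min at RT with 8 μM 2-AG. Arachidonic acid was quantified by RapidFire SPE-MS/MS against a d8-arachidonic acid internal standard.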

Usually IC50 stands for the point on the concentration scale where inhibition reaches its midpoint. Lower therefore signals greater potency.

On to `Cc1c(CN2CC3(C2)CN(C(=O)N2CC4(CC(c5nc(C6CC6)n[nH]5)C4)C2)C3)cnn1CC(F)(F)F` [compound 640], for which the IC50 is 43.7 nM.
As for `O=C(N1CC2(CC(c3nc(C4CC4)n[nH]3)C2)C1)N1CC2(CN(Cc3ncc(C(F)(F)F)[nH]3)C2)C1` [compound 641], the figure is 67.4 nM.
On to `O=C(N1CC2(CC(c3nc(C4CC4)n[nH]3)C2)C1)N1CC2(CN(Cc3cnc(C(F)(F)F)o3)C2)C1` [compound 642], for which inhibition was half-maximal at 27.5 nM (IC50).
As for `O=C(N1CC2(CC(c3nc(C4(F)CC4)n[nH]3)C2)C1)N1CC2(CN(Cc3nc(C(F)(F)F)cs3)C2)C1` [compound 643], the figure is 6.67 nM.
As for `O=C(N1CC2(CC(Cc3cc(C4CC4)n[nH]3)C2)C1)N1CC2(CC(c3nc(C4CC4)n[nH]3)C2)C1` [compound 644], the figure is 0.22 nM; as for `O=C(N1CC2(CC(Cc3ccc4ncnn4c3)C2)C1)N1CC2(CC(c3nc(C4CC4)n[nH]3)C2)C1` [compound 645], 6.54 nM.
Take `O=C(N1CC(c2ccc(N3CC(O)(C(F)(F)F)C3)nc2)C1)N1CC2(CC(c3nc(C4CC(F)(F)C4)n[nH]3)C2)C1` [compound 646]: the IC50 was 424 nM.
Compound `O=C(N1CC2(CC(Cc3ncc(C(F)(F)F)cn3)C2)C1)N1CC2(CC(c3nc(C4(F)CC4)n[nH]3)C2)C1` [compound 647] had an IC50 of 0.97 nM.
Turning to `N=S(=O)(c1cc(F)cc(CC2CC3(C2)CN(C(=O)N2CC4(CC(c5nc(C6CC6)n[nH]5)C4)C2)C3)c1)C(F)(F)F` (stereo not shown) [compound 649], the IC50 was determined as 0.12 nM.
The compound `Cn1nc(C(F)(F)F)cc1CN1CC2(C1)CN(C(=O)N1CC3(CC(c4nc(C5CC5)n[nH]4)C3)C1)C2` [compound 650] registered an IC50 of 9.74 nM.
The result for `O=C(N1CC2(CC(c3nc(C4CC4)n[nH]3)C2)C1)N1CC2(CN(Cc3cnc(C(F)F)s3)C2)C1` [compound 651] reads 9.48 nM.
As for `O=C(N1CC2(CC(Cc3ccc(S(=O)(=O)C(F)(F)F)cn3)C2)C1)N1CC2(CC(c3nc(C4(F)CC4)n[nH]3)C2)C1` [compound 652], the IC50 turned out to be 0.19 nM.
In the case of `O=C(N1CC2(CC(c3nc(C4(O)CC4)n[nH]3)C2)C1)N1CC2(CC[C@H](Cc3ccc(S(=O)(=O)C(F)(F)F)cc3)C2)C1` [compound 653], the IC50 was determined as 1 nM.
The result for `O=C(N1CC2(CC(Cc3cc(F)cc(S(=O)(=O)C(F)(F)F)c3)C2)C1)N1CC2(CC(c3nc(C4CC4)n[nH]3)C2)C1` [compound 654] reads 0.04 nM; that for `O=C(N1CC2(CC(c3nc(C4CC(F)(F)C4)n[nH]3)C2)C1)N1CC2(CN(Cc3sncc3C(F)(F)F)C2)C1` [compound 655], 557 nM; that for `O=C(N1CC2(CC(c3nc(C4CC4)n[nH]3)C2)C1)N1CC2(CN(Cc3ccnn3C(F)(F)F)C2)C1` [compound 656], 39.7 nM.
The compound `N=S(=O)(c1cccc(CC2CC3(C2)CN(C(=O)N2CC4(CC(c5nc(C6CC(F)(F)C6)n[nH]5)C4)C2)C3)c1)C(F)(F)F` (stereo not shown) [compound 657] displayed a half-inhibitory concentration (IC50) of 17.2 nM.
The result for `Cn1ncc(C(F)(F)F)c1CN1CC2(C1)CN(C(=O)N1CC3(CC(c4nc(C5CC(F)(F)C5)n[nH]4)C3)C1)C2` [compound 658] reads 412 nM; that for `CC(C)(C)c1c[nH]c(CN2CC3(C2)CN(C(=O)N2CC4(CC(c5nc(C6CC6)n[nH]5)C4)C2)C3)n1` [compound 659], 40.9 nM; that for `CS(=N)(=O)c1cc(CC2CC3(C2)CN(C(=O)N2CC4(CC(c5nc(C6CC6)n[nH]5)C4)C2)C3)cc(C(F)(F)F)c1` (stereo not shown) [compound 660], 0.79 nM.
The result for `O=C(N1CC2(CC(Cc3ccc(C(F)(F)F)cn3)C2)C1)N1CC2(CC(c3nc(C4CC(F)(F)C4)n[nH]3)C2)C1` [compound 661] reads 21.9 nM; that for `O=C(N1CC2(CC(c3nc(C4CC4)n[nH]3)C2)C1)N1CC2(CN(Cc3nc(C(F)(F)F)no3)C2)C1` [compound 662], 11.9 nM.
`O=C(N1CC2(CC(c3nc(C4CC4)n[nH]3)C2)C1)N1CC2(CN(Cc3conc3C(F)(F)F)C2)C1` [compound 663]: the IC50 turned out to be 13.1 nM.
As for `Cn1ncc(C(F)(F)F)c1CN1CC2(C1)CN(C(=O)N1CC3(CC(c4nc(C5CC5)n[nH]4)C3)C1)C2` [compound 664], the IC50 was 2.74 nM.
The result for `O=C(N1CC2(CC(Oc3ncc(C(F)(F)F)cc3F)C2)C1)N1CC2(CC(c3nc(C4CC4)n[nH]3)C2)C1` [compound 665] reads 0.23 nM; that for `O=C(N1CC(c2cnc(N3CC[C@@H](C(F)(F)F)C3)nc2)C1)N1CC2(CC(c3nc(C4CC4)n[nH]3)C2)C1` [compound 666], 2.2 nM.
In turn, `O=C(N1CC2(CC(c3nc(C4CC4)n[nH]3)C2)C1)N1CC2(CC[C@H](Cc3ccc(S(=O)(=O)C(F)(F)F)cc3)C2)C1` [compound 667] gave an IC50 of 0.09 nM.
Consider `N=S(=O)(c1cccc(CC2CC3(C2)CN(C(=O)N2CC4(CC(c5nc(C6CC(F)(F)C6)n[nH]5)C4)C2)C3)c1)C(F)(F)F` (stereo not shown) [compound 668], for which the IC50 was 9.75 nM.
The result for `N#Cc1cc(C(F)(F)F)ncc1C[C@@H]1CCC2(C1)CN(C(=O)N1CC3(CC(c4nnc(C5CC5)[nH]4)C3)C1)C2` [compound 669] reads 0.65 nM.
As for `CS(=O)(=O)c1cc(CC2CC3(C2)CN(C(=O)N2CC4(CC(c5nc(C6(O)CC6)n[nH]5)C4)C2)C3)cc(C(F)(F)F)c1` [compound 670], the IC50 worked out at 1 nM.
`O=C(N1CC2(CC(Cn3cc(C(F)(F)F)cn3)C2)C1)N1CC2(CC(c3nc(C4(O)CC4)n[nH]3)C2)C1` [compound 671] registered an IC50 of 5.55 nM.
As for `O=C(N1CC2(CC(c3nc(C4CC4)n[nH]3)C2)C1)N1CC2(CN(Cc3cc(C(F)(F)F)no3)C2)C1` [compound 672], the figure is 8.31 nM; as for `O=C(N1CC2(CC(Cn3ccc(C(F)(F)F)n3)C2)C1)N1CC2(CC(c3nc(C4(O)CC4)n[nH]3)C2)C1` [compound 673], 2 nM.
The result for `O=C(N1CC(C23CC(c4ccc(F)cc4)(C2)C3)C1)N1CC2(CC(c3nc(C4(O)CC4)n[nH]3)C2)C1` [compound 674] reads 8.08 nM; that for `O=C(N1CC2(CC(c3nc(C4CC4)n[nH]3)C2)C1)N1CC2(CN(Cc3cc(C(F)(F)F)sn3)C2)C1` [compound 675], 8.76 nM.
Regarding `O=C(N1CC2(CC(Cc3ncc(Cl)cc3F)C2)C1)N1CC2(CC(c3nc(C4(O)CC4)n[nH]3)C2)C1` [compound 676], half-maximal inhibition (IC50) required 2.94 nM.
The result for `N#Cc1ccc(CC2CC3(C2)CN(C(=O)N2CC4(CC(c5nc(C6CC(F)(F)C6)n[nH]5)C4)C2)C3)cc1C(F)(F)F` [compound 677] reads 13 nM; that for `O=C(N1CC2(CC(c3nnc(C4CC4)[nH]3)C2)C1)N1CC2(C1)CN(c1ncc(C(F)(F)F)cc1F)C2` [compound 678], 33.9 nM.
`O=C(N1CC2(CC(Cc3cc(C(F)(F)F)nn3CC(F)(F)F)C2)C1)N1CC2(CC(c3nc(C4CC4)n[nH]3)C2)C1` [compound 679] showed an IC50 of 0.15 nM.
`CP(C)(=O)c1cc(F)cc(CC2CC3(C2)CN(C(=O)N2CC4(CC(c5nc(C6CC6)n[nH]5)C4)C2)C3)c1` [compound 680] showed an IC50 of 1.71 nM.
The result for `Cn1nc(CN2CC3(C2)CN(C(=O)N2CC4(CC(c5nc(C6CC6)n[nH]5)C4)C2)C3)cc1C(F)(F)F` [compound 681] reads 7.41 nM; that for `O=C(N1CC2(CC(c3nnc(C4CC4)[nH]3)C2)C1)N1CC2(C1)CN(c1ccc(C(F)(F)F)cn1)C2` [compound 682], 38.4 nM; that for `O=C(N1CC2(CC(Cc3nc(C(F)(F)F)no3)C2)C1)N1CC2(CC(c3nc(C4CC4)n[nH]3)C2)C1` [compound 683], 0.21 nM.
The result for `O=C(N1CC2(CC(Cc3ccc4[nH]ncc4n3)C2)C1)N1CC2(CC(c3nc(C4CC4)n[nH]3)C2)C1` [compound 684] reads 4.33 nM; that for `CS(=O)(=O)c1cc(F)ccc1C12CC(C3CN(C(=O)N4CC5(CC(c6nc(C7CC7)n[nH]6)C5)C4)C3)(C1)C2` [compound 685], 0.96 nM; that for `Cc1onc(C2CC2)c1CN1CC2(C1)CN(C(=O)N1CC3(CC(c4nc(C5CC5)n[nH]4)C3)C1)C2` [compound 686], 14.2 nM.
As to `N=S(=O)(c1ccc(CC2CC3(C2)CN(C(=O)N2CC4(CC(c5nc(C6CC(F)(F)C6)n[nH]5)C4)C2)C3)cc1)C(F)(F)F` (stereo not shown) [compound 687], the IC50 turned out to be 54.1 nM.
The result for `Cn1ncc(CN2CC3(C2)CN(C(=O)N2CC4(CC(c5nc(C6CC6)n[nH]5)C4)C2)C3)c1C(F)(F)F` [compound 688] reads 8.96 nM.
For `O=C(N1CC2(CC(Cn3cc(CC(F)(F)F)cn3)C2)C1)N1CC2(CC(c3nc(C4CC4)n[nH]3)C2)C1` [compound 690], the IC50 was 0.61 nM.
As for `Cn1ncc(C(F)(F)F)c1CC1CC2(C1)CN(C(=O)N1CC3(CC(c4nc(C5CC5)n[nH]4)C3)C1)C2` [compound 691], the figure is 0.16 nM; as for `O=C(N1CC2(CC(Cc3ccc4[nH]ncc4n3)C2)C1)N1CC2(CC(c3nc(C4(O)CC4)n[nH]3)C2)C1` [compound 692], 20.1 nM.
In turn, `O=C(N1CC2(CC(c3nc(C4CC4)n[nH]3)C2)C1)N1CC2(CN(Cc3nc(C(F)(F)F)co3)C2)C1` [compound 693] had an IC50 of 24.5 nM.
The compound `O=C(N1CC2(CC(c3nnc(C4CC4)[nH]3)C2)C1)N1CC2(C1)CN(c1ncc(C(F)(F)F)cn1)C2` [compound 694] returned an IC50 of 236 nM.
Compound `O=C(N1CC2(CC(c3nc(C4CC4)n[nH]3)C2)C1)N1CC2(CN(Cc3nc(CC(F)(F)F)no3)C2)C1` [compound 695] gave an IC50 of 43.8 nM.
`N=S(=O)(c1ccc(C2CN(C(=O)N3CC4(CC(c5nc(C6(O)CC6)n[nH]5)C4)C3)C2)cc1)C(F)(F)F` (stereo not shown) [compound 697] had an IC50 of 2.65 nM.

Source of the values: patent publication US20250099448A1, “HETEROCYCLIC COMPOUNDS” (Hoffmann-La Roche Inc., priority 2022, published 2025).
